Laboratory results reported in patent US10010504B2, “Compositions and methods including celecoxib and plumbagin relating to treatment of cancer” (The Penn State Research Foundation, priority 2013, dated 2018).

System: UACC 903 melanoma cells
Experiment: Thermal stability in DMSO at 60° C., efficacy by MTS assay
Conditions: DMSO solution

Structure (SMILES) | effect of prolonged exposure to 60° C. on compound activity | heating time acceptable without decreasing efficacy [min]
CC1=CC(=O)c2c(O)cccc2C1=O [plumbagin, 5-hydroxy-2-methyl-1,4-napthoquinone] | did not affect compound activity | –
Cc1ccc(-c2cc(C(F)(F)F)nn2-c2ccc(S(N)(=O)=O)cc2)cc1 [celecoxib, 4-[5-(4-Methylphenyl)-3-(trifluoromethyl)-1H-pyrazol-1-yl]benzenesulfonamide] | – | ≤ 20
